Like-named read-outs stand apart in the source and are kept apart here.
Columns and labels:
P2X6 receptor = P2X6 receptor (Homo sapiens, UniProt O15547); parameters: key: −: no activity; +: activating concentration >10 μM; ++: activating concentration 1~10 μM; +++: activating concentration <1 μM; conditions: Table 8, antagonists; cited from earlier work
P2X7 receptor = target: T1, P2X7 receptor (Homo sapiens, UniProt Q99572); conditions: Table 8, antagonists; cited from earlier work
T1 sequence (Q99572 1-595): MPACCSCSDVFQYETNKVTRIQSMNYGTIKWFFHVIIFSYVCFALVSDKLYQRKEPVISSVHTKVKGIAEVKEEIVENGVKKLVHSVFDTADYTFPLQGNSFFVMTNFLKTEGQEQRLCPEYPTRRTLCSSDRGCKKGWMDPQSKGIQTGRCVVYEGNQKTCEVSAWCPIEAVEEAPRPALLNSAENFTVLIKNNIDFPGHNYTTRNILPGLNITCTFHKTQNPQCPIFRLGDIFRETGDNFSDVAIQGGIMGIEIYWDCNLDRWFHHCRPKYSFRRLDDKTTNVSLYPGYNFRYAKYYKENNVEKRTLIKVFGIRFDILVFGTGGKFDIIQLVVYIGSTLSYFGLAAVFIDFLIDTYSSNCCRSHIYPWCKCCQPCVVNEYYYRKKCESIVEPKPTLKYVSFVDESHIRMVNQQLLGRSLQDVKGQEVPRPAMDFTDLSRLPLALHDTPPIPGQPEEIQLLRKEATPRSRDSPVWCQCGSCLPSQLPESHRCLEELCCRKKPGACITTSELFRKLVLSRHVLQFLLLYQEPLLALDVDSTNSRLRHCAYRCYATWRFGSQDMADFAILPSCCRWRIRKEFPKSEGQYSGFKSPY

P2X1 receptor = target: T2, P2X1 receptor (Homo sapiens, UniProt P51575); conditions: cited from earlier work
T2 sequence (P51575 1-399): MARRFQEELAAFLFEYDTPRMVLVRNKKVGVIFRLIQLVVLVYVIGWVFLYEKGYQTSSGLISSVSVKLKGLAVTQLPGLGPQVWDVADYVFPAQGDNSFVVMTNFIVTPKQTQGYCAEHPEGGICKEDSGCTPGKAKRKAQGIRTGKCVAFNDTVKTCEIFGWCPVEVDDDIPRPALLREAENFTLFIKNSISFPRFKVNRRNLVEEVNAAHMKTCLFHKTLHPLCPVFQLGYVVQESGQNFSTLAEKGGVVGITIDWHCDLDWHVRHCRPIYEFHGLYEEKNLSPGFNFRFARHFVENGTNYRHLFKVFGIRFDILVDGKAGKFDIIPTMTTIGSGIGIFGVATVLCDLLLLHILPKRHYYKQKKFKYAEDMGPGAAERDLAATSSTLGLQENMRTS

P2X5 receptor = P2X5 receptor (Homo sapiens, UniProt Q93086); conditions: Table 8, antagonists; cited from earlier work
P2X5 receptor, sequence (Q93086 whole entry): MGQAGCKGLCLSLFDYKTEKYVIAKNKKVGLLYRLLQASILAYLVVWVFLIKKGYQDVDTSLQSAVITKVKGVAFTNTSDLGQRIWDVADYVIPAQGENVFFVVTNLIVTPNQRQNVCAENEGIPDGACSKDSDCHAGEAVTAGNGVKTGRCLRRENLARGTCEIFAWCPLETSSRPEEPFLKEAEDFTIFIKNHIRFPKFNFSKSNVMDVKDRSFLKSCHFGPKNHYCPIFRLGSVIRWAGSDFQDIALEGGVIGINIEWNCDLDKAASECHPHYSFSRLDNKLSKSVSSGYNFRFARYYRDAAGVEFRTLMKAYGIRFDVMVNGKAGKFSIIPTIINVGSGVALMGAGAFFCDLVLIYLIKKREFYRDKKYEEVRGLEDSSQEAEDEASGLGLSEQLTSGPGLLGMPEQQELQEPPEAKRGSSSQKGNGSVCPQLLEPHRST

EV71 = assay: Inhibition of EV71 replication in RD cells at 0.1, 1, 10 and 100 μM (CPE, crystal violet); type: cell-based, Enterovirus 71; conditions: Table 8, antagonists
Outline: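 RD cells infected with EV71 and treated at 0.1, 1, 10 and 100 μM were incubated 3˜4 days, crystal violet-stained and inspected microscopically for CPE. Cytotoxicity was checked in parallel by culturing uninfected RD cells with compound for 3˜4 days and examining cell-layer damage.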

P2X3 receptor = target: T3, P2X3 receptor (Homo sapiens, UniProt P56373); conditions: Table 8, antagonists; cited from earlier work
T3 sequence (P56373 1-397): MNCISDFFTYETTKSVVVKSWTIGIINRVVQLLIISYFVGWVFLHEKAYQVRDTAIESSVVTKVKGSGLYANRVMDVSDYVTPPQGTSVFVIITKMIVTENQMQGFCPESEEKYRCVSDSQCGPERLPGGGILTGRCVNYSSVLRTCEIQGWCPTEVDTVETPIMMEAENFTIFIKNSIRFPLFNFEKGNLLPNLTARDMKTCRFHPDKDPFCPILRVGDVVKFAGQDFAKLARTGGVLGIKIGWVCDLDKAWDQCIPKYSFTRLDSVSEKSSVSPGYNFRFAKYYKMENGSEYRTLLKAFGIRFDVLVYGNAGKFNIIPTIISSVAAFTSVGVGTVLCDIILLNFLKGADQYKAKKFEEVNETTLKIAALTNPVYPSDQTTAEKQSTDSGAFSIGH

RD cells = assay: Cytotoxicity to RD cells (Celltiter Glo); type: cell-based
Description: Cytotoxicity to RD cells at different E02 concentrations was measured using Celltitr Glo reagents as follows:
(1) Cells seeding: 24 h prior to testing, RD cells were seeded in 96-well cell culture plates at 5×10^4 per well;
(2) Cells incubated with E02: medium was removed from cell culture plates, 180 μl of DMEM containing 2% FBS was added, and then added 20 μl of DMEM solution with corresponding concentration of E02, placed in 37° C., 5% CO2 incubator for incubation;
(3) After cultured for 46 h, cellular ATP levels were measured using the PROMEGA Celltitr Glo reagents according to reagent instructions.
PPADS is an E02 analog (Khakh, Burnstock et al., 2001; Burnstock 2004; Coddou, Yan et al. 2011) and has a similar inhibitory effect on P2X subtypes to that of E02. RD cells were infected with EV71 clinical isolate FY 573 at different PPADS concentrations to determine the inhibitory effect of PPADS on EV71 replication. Detailed procedure is the same as that in “1” of Example 1. In addition, cytotoxicity to RD cells at each concentration of PPADS was determined. Detailed procedure is the same as that in “1” of Example 6.

P2X6 receptor, sequence (O15547 whole entry): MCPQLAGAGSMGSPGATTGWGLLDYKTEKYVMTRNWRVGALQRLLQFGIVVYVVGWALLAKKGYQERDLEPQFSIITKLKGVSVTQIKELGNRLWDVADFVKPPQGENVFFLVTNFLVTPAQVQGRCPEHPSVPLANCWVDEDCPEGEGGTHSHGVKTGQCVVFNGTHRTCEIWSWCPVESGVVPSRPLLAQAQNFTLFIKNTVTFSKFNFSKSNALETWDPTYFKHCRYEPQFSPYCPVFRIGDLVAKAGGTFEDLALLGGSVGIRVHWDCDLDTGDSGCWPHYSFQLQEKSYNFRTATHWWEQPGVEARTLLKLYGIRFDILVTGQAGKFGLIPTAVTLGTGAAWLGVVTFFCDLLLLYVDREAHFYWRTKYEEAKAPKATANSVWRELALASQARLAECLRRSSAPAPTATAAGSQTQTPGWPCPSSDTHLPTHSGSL

Structure (SMILES)	P2X receptors 6 (P2X6 receptor)	P2X receptors 7 (P2X7 receptor)	P2X receptors 1 (P2X1 receptor)	P2X receptors 5 (P2X5 receptor)	Inhibition of EV71 replication (EV71)	P2X receptors 3 (P2X3 receptor)	cytotoxicity to RD cells (RD cells; 1×10^−6 to 1×10^4 μM of E02, 46 h, cellular ATP)	P2X receptors 1 (P2X1 receptor; Table 8, antagonists)	concentrations not cytotoxic to RD cells (RD cells; PPADS)
Cc1ccc(C(=O)Nc2ccc(S(=O)(=O)O)c3cc(S(=O)(=O)O)cc(S(=O)(=O)O)c23)cc1NC(=O)c1cccc(NC(=O)Nc2cccc(C(=O)Nc3cc(C(=O)Nc4ccc(S(=O)(=O)O)c5cc(S(=O)(=O)O)cc(S(=O)(=O)O)c45)ccc3C)c2)c1 [E02, Suramin Sodium]	−	−	++ (key: −: no activity; +: inhibitory concentration >300 nM; ++: inhibitory concentration = 10~300 nM; +++: inhibitory concentration <10 nM)	++ (++: inhibitory concentration = 10~300 nM)	+ (+: inhibitory concentration >300 nM)	+ (+: inhibitory concentration >300 nM)	no cytotoxicity		
Cc1nc(N=Nc2ccc(S(=O)(=O)O)cc2S(=O)(=O)O)c(COP(=O)(O)O)c(C=O)c1O [PPADS, pyridoxal-phosphate-6-azophenyl-2′, 4′-disulphonic acid]	+ (+: inhibitory concentration >300 nM)	+ (+: inhibitory concentration >300 nM)		++ (++: inhibitory concentration = 10~300 nM)	+ (+: inhibitory concentration >300 nM)	++ (++: inhibitory concentration = 10~300 nM)		++ (++: inhibitory concentration = 10~300 nM)	lower than 64 μM
